Laboratory results from US8536407B2, “Heat resistant plants and plant tissues comprising a variant adenosine diphosphate glucose pyrophosphorylase small subunit protein and methods of use thereof” (University of Florida Research Foundation, Inc., priority 2008, dated 2013).
Numbering of substitutions follows the chain as printed. “Also recorded” adds a separate entry of the source. Like-named read-outs stand apart in the source and are kept apart here.

Tests used:
[1] = test system: ADP-glucose pyrophosphorylase (AGPase) MP/SH2, mosaic small subunit MP (first 200 amino acids of maize BT2 and last 275 amino acids of potato tuber small …); conditions: MP/SH2 compared to wildtype BT2/SH2; Cross et al., 2004; Boehlein et al., 2005; cited from earlier work
[2] = target: T1, maize endosperm ADP-glucose pyrophosphorylase (AGPase) variant BT2-TI/SH2, small subunit BT2 with Thr462 to Ile (TI, SEQ ID NO:2) complexed with wild type SH2 (Zea mays, UniProt P55241+Q947C0, T462I); assay: Kinetic and allosteric characterization of purified recombinant AGPase, forward direction (BT2-TI/SH2); format: biochemical
T1 sequence (Q947C0 1-475 T462I): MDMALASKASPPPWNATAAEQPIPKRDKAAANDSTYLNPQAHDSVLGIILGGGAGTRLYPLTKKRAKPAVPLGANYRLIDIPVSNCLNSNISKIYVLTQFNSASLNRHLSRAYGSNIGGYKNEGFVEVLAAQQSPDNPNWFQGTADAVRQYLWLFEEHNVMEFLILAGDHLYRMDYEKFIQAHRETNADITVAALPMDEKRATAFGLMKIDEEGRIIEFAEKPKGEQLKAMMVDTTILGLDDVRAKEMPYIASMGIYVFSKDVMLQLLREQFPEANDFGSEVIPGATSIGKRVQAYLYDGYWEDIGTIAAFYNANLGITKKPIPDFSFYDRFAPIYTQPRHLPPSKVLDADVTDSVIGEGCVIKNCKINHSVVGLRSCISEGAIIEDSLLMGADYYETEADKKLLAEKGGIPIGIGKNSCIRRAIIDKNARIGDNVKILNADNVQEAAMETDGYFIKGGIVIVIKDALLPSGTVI
T1 sequence (P55241 46-516): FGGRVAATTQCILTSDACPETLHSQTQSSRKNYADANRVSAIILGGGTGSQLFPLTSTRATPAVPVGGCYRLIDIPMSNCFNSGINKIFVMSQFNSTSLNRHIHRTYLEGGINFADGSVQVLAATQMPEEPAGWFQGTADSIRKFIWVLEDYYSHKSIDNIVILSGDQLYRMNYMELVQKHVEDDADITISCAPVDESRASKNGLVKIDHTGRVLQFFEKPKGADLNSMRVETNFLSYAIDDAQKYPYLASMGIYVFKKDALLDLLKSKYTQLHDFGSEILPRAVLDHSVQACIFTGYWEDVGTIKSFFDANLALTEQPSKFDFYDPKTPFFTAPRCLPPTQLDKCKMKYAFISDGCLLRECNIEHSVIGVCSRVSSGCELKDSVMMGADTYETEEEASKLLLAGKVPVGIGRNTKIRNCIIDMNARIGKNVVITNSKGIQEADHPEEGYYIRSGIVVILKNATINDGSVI
Description: (§1) The following steps were conducted at 4° C.
(§2) The reaction was stopped by boiling for 2 min. […] NADH concentration was estimated by absorbance at 340 nm.
A mutant Bt2 library was created by error-prone PCR. The mutational load was ˜2 non-synonymous mutations per clone (Georgelis et al. 2007). The mutants were expressed in E. coli along with a wildtype Sh2 gene. Approximately 50,000 colonies were screened for glycogen production. Ten dark staining colonies were picked. The two darkest staining Bt2 mutants were sequenced. Both had the same non-synonymous mutation resulting in a change of amino acid 462 from threonine to isoleucine (TI). The threonine in that position is absolutely conserved among the higher plant small subunits (data not shown).
Ki's are expressed as mean (95% confidence interval). All other values are expressed as mean±standard deviation.

[3] = test system: ADP-glucose pyrophosphorylase (AGPase) variant MP-TI/SH2, maize/potato mosaic small subunit MP with the TI mutation (threonine to isoleucine at position …); assay: Kinetic and allosteric characterization of purified recombinant AGPase, forward direction (MP-TI/SH2); format: biochemical, maize (Zea mays) / potato tuber
Description: as §1, §2
(§3) All other values are expressed as mean±standard deviation.

[4] = target: T2, maize endosperm ADP-glucose pyrophosphorylase (AGPase) BT2/SH2, wild type small subunit BT2 complexed with wild type large subunit SH2 (Zea mays, UniProt P55241+Q947C0); assay: Kinetic and allosteric characterization of purified recombinant AGPase, forward direction (BT2/SH2); format: biochemical
T2 sequence (Q947C0 1-475): T1 sequence (Q947C0 1-475 T462I) with I462T
T2 sequence (P55241 46-516): T1 sequence (P55241 46-516)
Description: as §1, §2, §3

[5] = test system: ADP-glucose pyrophosphorylase (AGPase) MP/SH2, mosaic small subunit MP (first 200 amino acids of maize BT2 and last 275 amino acids of potato tuber small …); conditions: for Km: forward direction, pH 7.4, 37° C.
Description: AGPase was desalted by using Zeba Micro Desalt Spin Columns (Pierce) before assaying. AGPase was exchanged into 50 mM HEPES, 5 mM MgCl2, 0.5 mM EDTA and 0.5 mg/mL BSA (for stability).
The reaction was stopped by boiling for 2 min. PPi was estimated by coupling the reaction to a reduction in NADH concentration using 300 μl of coupling reagent. The coupling reagent contained 25 mM imidazole pH 7.4, 4 mM MgCl2, 1 mM EDTA, 0.2 mM NADH, 0.725U aldolase, 0.4U triose phosphate isomerase, 0.6U glycerophosphate dehydrogenase, 1 mM fructose 6-phosphate and 0.8 μg of pyrophosphate dependent phosphofructokinase (PPi-PFK). […] NADH concentration was estimated by absorbance at 340 nm. PPi concentration was calculated by a standard curve developed by using various amounts of PPi instead of AGPase. […] The kinetic constants of AGPase were calculated by Prism 4.0 (Graph Pad, San Diego Calif.).
All other values are expressed as mean±standard deviation. The specific activity of AGPase in the absence of 3-PGA is expressed as a percentage of the specific activity in the presence of 10 mM of 3-PGA (mean±standard error).

E. coli cells = assay: Glycogen produced by E. coli cells expressing AGPase subunits; format: cell-based; conditions: subunit expressed with SH2 or alone (homotetramer)
Source text: A bacterial expression system (Iglesias et al., 1993) allowed us to randomly mutagenize maize endosperm AGPase genes and score AGPase activity in a fast and efficient way by exposing plates to iodine vapors as described below. The E. coli system is ideal for studying plant AGPases for a number of reasons discussed in Georgelis et al. (2007).
Glycogen synthesis was detected by production of brown staining colonies following exposure to iodine vapors. […] (Govons et al., 1969). The colonies were exposed to iodine vapors for 1 min. […] AGPase variants staining darker than wildtype were selected for further study.
Glycogen quantitation was performed by phenol reaction (Hanson and Phillips, 1981). In brief, glycogen was extracted from 1.6 ml of E. coli cells (OD600=2.0) grown in LB containing 2% w/v glucose by boiling for 3 hours in 50% w/v KOH. Glycogen was then precipitated by adding ethanol to 70% v/v and centrifuging at 10000×g for 10 min. After pellet drying, 200 μl de-ionized water, 200 μl of 5% w/v phenol and 1 mL of concentrated sulfuric acid were added. Glycogen was estimated by the absorbance at 488 nm.

maize endosperm AGPase = assay: Kinetic characterization of purified recombinant AGPase variants, forward direction; format: biochemical; conditions: compared to BT2/SH2
Description: as §1, §2, §3

SH2 = target: T3, SH2 (Zea mays, UniProt P55241); assay: Yeast two hybrid, quantitative β-galactosidase assay of subunit-subunit interactions; format: cell-based, maize; conditions: SH2 as bait, small subunit as prey; listed as TI
T3 construct: expressed in transfected cells
T3 sequence (P55241 46-516): T1 sequence (P55241 46-516)
Description: Yeast transformations and a β-galactosidase assay were conducted as described by Greene and Hannah (1998b). The only modification was the use of pGBKT7 and pGADT7 as vectors for the bait and the prey respectively. pGBKT7-53 and pGADT7-T plasmids were used as a positive control.

[6] = specific activity in absence of 3-PGA as percentage of that with 10 mM 3-PGA, mean±standard error
[7] = varying ATP, G-1-P saturating (2 mM), mean±standard deviation
[8] = 1 mM ATP, 2 mM G-1-P, 2.5 mM 3-PGA, mean (95% confidence interval), read-out: Ki Pi

Which results are given for `O=C(O)[C@H](O)COP(=O)(O)O` [3-PGA]?
affinity for 3-PGA (in words) [1]: increased affinity for 3-PGA; Ka for 3-PGA (compared with BT2/SH2, in words) ([2]; BT2-TI/SH2 versus BT2/SH2): indistinguishable from BT2/SH2; Vmax − 3-PGA/Vmax + 3-PGA [3, 6]: (24.4 ± 5.3%); Vmax − 3-PGA/Vmax + 3-PGA [4, 6]: (7.2 ± 3.2%); Vmax − 3-PGA/Vmax + 3-PGA ([5]; MP/SH2, specific activity in absence of 3-PGA as percentage of that with 10 mM 3-PGA, mean±standard error): (28.2 ± 3.1%); affinity for 3-PGA (in words) ([5]; MP/SH2 compared to BT2/SH2): increased affinity for 3-PGA; also recorded: a higher affinity for 3-PGA

For `Nc1ncnc2c1ncn2[C@@H]1O[C@H](COP(=O)(O)OP(=O)(O)OP(=O)(O)O)[C@@H](O)[C@H]1O` [ATP], which “kcat (ATP)” value ([2]; BT2-TI/SH2, varying ATP, G-1-P saturating (2 mM), mean±standard deviation) is on record?
Its value is 29.112 s⁻¹.

What about the “Km (compared with BT2/SH2, in words)” value ([2]; BT2-TI/SH2 versus BT2/SH2) of the same molecule?
The value was “indistinguishable from BT2/SH2”.

What about the Km ([2]; read-out: Km ATP, BT2-TI/SH2, forward direction, pH 7.4, 37° C., varying ATP, mean±standard deviation) of the same molecule?
The Km was 146 µM.

What about the Km ([3]; forward direction, pH 7.4, 37° C., varying ATP, mean±standard deviation, read-out: Km ATP) of the same molecule?
Its Km is 112 µM.

What about the “kcat (ATP)” value [3, 7] of the same molecule?
Its value is 49.031 s⁻¹.

What about the Km ([4]; read-out: Km ATP, forward direction, pH 7.4, 37° C., varying ATP, mean±standard deviation) of the same molecule?
Its Km is 102 µM.

And the “kcat (ATP)” value [4, 7]?
The value was 43.321 s⁻¹.

What about the “kcat (ATP)” value ([5]; MP/SH2, varying ATP, G-1-P saturating (2 mM), mean±standard deviation) of the same molecule?
Its value is 69.337 s⁻¹.

And the Km ([5]; read-out: Km ATP, MP/SH2, varying ATP, mean±standard deviation)?
The Km was 133 µM.

For `O=P(O)(O)O[C@H]1O[C@H](CO)[C@@H](O)[C@H](O)[C@H]1O` [G-1-P, glucose-1-P], which “Km (compared with BT2/SH2, in words)” value ([2]; BT2-TI/SH2 versus BT2/SH2) is on record?
Its value is “indistinguishable from BT2/SH2”.

What about the Km ([3]; read-out: Km G-1-P, forward direction, pH 7.4, 37° C., varying G-1-P, mean±standard deviation) of the same molecule?
The Km was 59 µM.

And the “kcat (G-1-P)” value ([3]; varying G-1-P, ATP saturating (1 mM), mean±standard deviation)?
The value was 42.880 s⁻¹.

And the “kcat (G-1-P)” value ([5]; MP/SH2, varying G-1-P, ATP saturating (1 mM), mean±standard deviation)?
The value was 62.655 s⁻¹.

And the Km ([5]; read-out: Km G-1-P, MP/SH2, varying G-1-P, mean±standard deviation)?
The Km was 79 µM.

For `O=P(O)(O)O` [Pi, inorganic phosphate], which Ki ([2]; BT2-TI/SH2, 1 mM ATP, 2 mM G-1-P, 2.5 mM 3-PGA, mean (95% confidence interval), read-out: Ki Pi) is on record?
Its Ki is 4.07 mM.

And the “Ki for Pi (compared with BT2/SH2, in words)” value ([2]; BT2-TI/SH2 versus BT2/SH2)?
Its value is “indistinguishable from BT2/SH2”.

And the Ki [3, 8]?
The Ki was 5.87 mM.

And the Ki [4, 8]?
The Ki was 2.32 mM.

What about the “affinity for Pi (in words)” value ([5]; MP/SH2 compared to BT2/SH2) of the same molecule?
Its value is “decreased affinity for Pi; also recorded: a lower affinity for the inhibitor Pi”.

And the Ki ([5]; read-out: Ki Pi, MP/SH2, 1 mM ATP, 2 mM G-1-P, 2.5 mM 3-PGA, mean (95% confidence interval))?
Its Ki is 6.61 mM.

B1: MP-TI: MP mosaic small subunit with the amino acid change of TI introduced (protein)
chain: MDMALASKASPPPWNATAAEQPIPKRDKAAANDSTYLNPQAHDSVLGIILGGGAGTRLYPLTKKRAKPAVPLGANYRLIDIPVSNCLNSNISKIYVLTQFNSASLNRHLSRAYGSNIGGYKNEGFVEVLAAQQSPDNPNWFQGTADAVRQYLWLFEEHNVMEFLILAGDHLYRMDYEKFIQAHRETNADITVAALPMDEKRATAFGLMKIDEEGRIIEFAEKPQGEQLQAMKVDTTILGLDDKRAKEMPFIASMGIYVISKDVMLNLLRDKFPGANDFGSEVIPGATSLGMRVQAYLYDGYWEDIGTIEAFYNANLGITKKPVPDFSFYDRSAPIYTQPRYLPPSKMLDADVTDSVIGEGCVIKNCKIHHSVVGLRSCISEGAIIEDSLLMGADYYETDADRKLLAAKGSVPIGIGKNCHIKRAIIDKNARIGDNVKIINKDNVQEAARETDGYFIKSGIVIVIKDALIPSGIII
modifications: zea mays MP-TI protein
notes: MP mosaic small subunit with the amino acid change of TI introduced
Which “glycogen produced by E. coli cells” value (E. coli cells) does the source give for B1 here?
Its value is “yielded an equal amount of glycogen as MP/SH2”.

B2: BT2-TI: BT2 small subunit with change of amino acid 462 from threonine to isoleucine (protein)
chain: T1 sequence (Q947C0 1-475 T462I)
modifications: zea mays BT2 protein
notes: BT2 small subunit with change of amino acid 462 from threonine to isoleucine
What does the source list for B2?
kcat lower than kcat of BT2/SH2 (maize endosperm AGPase): 30%; strength of subunit-subunit interactions (SH2): did not increase the strength of subunit-subunit interactions; also recorded: does not strengthen the subunit-subunit interactions
